Reference: US20260234139A1, “PGDH INHIBITORS AND METHODS OF MAKING AND USING” (Epirium Bio Inc., priority 2023, published 2026)

Legend:
A549 = A549 EC50 (cell assay, method not described); assay type: cell-based; conditions: Homo sapiens, A549, A549
15-PGDH/HPGD = target: T1, 15-PGDH/HPGD (Homo sapiens, UniProt P15428); experiment: hPGDH inhibitor screening biochemical assay; conditions: 10 nM enzyme, 15 μM Prostaglandin E2, 0.25 mM NAD, fluorescence ex/em 340/485 nm
T1 construct: purchased R&D System 5660-DH
T1 sequence (P15428 1-266): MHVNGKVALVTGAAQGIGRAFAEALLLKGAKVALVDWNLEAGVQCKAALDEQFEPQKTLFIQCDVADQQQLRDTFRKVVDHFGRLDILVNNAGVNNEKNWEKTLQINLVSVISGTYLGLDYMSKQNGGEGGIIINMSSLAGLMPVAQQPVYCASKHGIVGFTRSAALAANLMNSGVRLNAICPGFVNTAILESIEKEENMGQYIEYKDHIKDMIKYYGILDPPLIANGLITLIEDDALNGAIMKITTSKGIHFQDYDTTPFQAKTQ
Description: A hydroxyprostaglandin dehydrogenase inhibition screening biochemical assay can be performed to assess the synthesized inhibitors provided herein. Provided herein is an exemplary biochemical assay for hPGDH inhibitor screening.
The in vitro biochemical assay can be performed in white, 384 plates in total 20 μl reaction volume consisting of 10 nM of 15-PGDH/HPGD (R&D System #5660-DH), 15 μM Prostaglandin E2 (Sigma, Cat #P5640-10 MG) and 0.25 mM B-Nicotinamide adenine dinucleotide sodium salt (Sigma, Cat #N0632-5G) made in reaction buffer (50 mM Tris-HCl, pH 7.5, 0.01% Tween 20) at 10-point dose response curve for test/tool compounds. Briefly, 5 μl (4×) of compounds solution and 5 μl (final concentration, 10 nM) of enzyme solution is added to white 384 well plates and incubated for 10 mins at 37° C. 5 μl (4×) of Prostaglandin E2 and 5 μl (4×) of β-Nicotinamide adenine dinucleotide sodium salt is added to the wells and incubated for 10 mins at room temperature. Fluorescence is recorded at ex/em=340 nm/485 nm.

Structure (SMILES): CC(C)(C)OC[C@@H](O)c1cnc2c(ccn2-c2cccc(-c3nnc[nH]3)c2)n1 [Compound 26B]
- EC50 (A549): < 100 nM
- IC50 (15-PGDH/HPGD): < 100 nM

Structure (SMILES): O[C@H](COC1CC1)c1cnc2c(cnn2-c2cccc(-c3nnc[nH]3)c2)c1 [Compound 37B]
- EC50 (A549): < 100 nM
- IC50 (15-PGDH/HPGD): < 100 nM

Structure (SMILES): CCOC1([C@@H](O)c2cnc3c(cnn3-c3cccc(-c4nnc[nH]4)c3)c2)CC1 [Compound 63B]
- EC50 (A549): 100 to 1000 nM
- IC50 (15-PGDH/HPGD): < 100 nM

Structure (SMILES): CC1(C)CC(OC[C@@H](O)c2cnc3c(cnn3-c3ccc(C(=O)O)nc3)c2)C1 [Compound 116B]
- EC50 (A549): ≥ 1000 nM
- IC50 (15-PGDH/HPGD): < 100 nM

Structure (SMILES): COCCNC(=O)c1ccc(-n2ncc3cc([C@@H](O)COC4CCC4)cnc32)cc1 [Compound 118A]
- EC50 (A549): < 100 nM
- IC50 (15-PGDH/HPGD): < 100 nM

Structure (SMILES): CC1(OC[C@@H](O)c2cnc3c(cnn3-c3ccc(C(=O)O)cc3)c2)CCC1 [Compound 90B]
- EC50 (A549): < 100 nM
- IC50 (15-PGDH/HPGD): < 100 nM

Structure (SMILES): CC(C)OC[C@H](O)c1cnc2c(ccn2-c2cccc(-c3nnc[nH]3)c2)c1 [Compound 29A]
- EC50 (A549): < 100 nM
- IC50 (15-PGDH/HPGD): < 100 nM

Structure (SMILES): O=C(O)c1ccc(-n2ncc3cc([C@@H](O)COC4CCC4)cnc32)cn1 [Compound 96B]
- EC50 (A549): 100 to 1000 nM
- IC50 (15-PGDH/HPGD): < 100 nM

Structure (SMILES): CC(C)OC[C@@H](O)c1cnc2c(cnn2-c2ccc(CC(=O)O)cc2)c1 [Compound 71A]
- EC50 (A549): 100 to 1000 nM
- IC50 (15-PGDH/HPGD): 100 to 1000 nM

Structure (SMILES): CC(C)OC[C@@H](O)c1cnc2c(ccn2-c2cccc(-c3nnc[nH]3)c2)c1 [Compound 29B]
- EC50 (A549): < 100 nM
- IC50 (15-PGDH/HPGD): < 100 nM

Structure (SMILES): O[C@H](COC1CCC1)c1cnc2c(cnn2-c2ccc(N3CCOCC3)cc2)c1 [Compound 76B]
- EC50 (A549): ≥ 1000 nM
- IC50 (15-PGDH/HPGD): ≥ 1000 nM

Structure (SMILES): O[C@H](c1cnc2c(cnn2-c2ccc3nc(N4CCOCC4)nn3c2)c1)C1COC1 [Compound 64A]
- EC50 (A549): 100 to 1000 nM
- IC50 (15-PGDH/HPGD): 100 to 1000 nM

Structure (SMILES): CC(F)(F)[C@@H](O)c1cnc2c(ccn2-c2cccc(-c3nnc[nH]3)c2)c1 [Compound 5A]
- EC50 (A549): < 100 nM
- IC50 (15-PGDH/HPGD): < 100 nM

Structure (SMILES): CS(=O)(=O)c1cccc(-n2ncc3cc([C@H](O)COC4CCC4)cnc32)c1 [Compound 123B]
- EC50 (A549): ≥ 1000 nM

Structure (SMILES): O=C(O)c1ccc(-n2ccc3nc([C@@H](O)COCC4CC4)cnc32)cc1 [Compound 112A]
- EC50 (A549): ≥ 1000 nM
- IC50 (15-PGDH/HPGD): < 100 nM

Structure (SMILES): Cc1nn(-c2ccc(C(=O)O)cc2)c2ncc([C@@H](O)COC3CCCC3)cc12 [Compound 104A]
- EC50 (A549): 100 to 1000 nM

Structure (SMILES): CC(C)OC[C@H](O)c1cnc2c(cnn2-c2ccc(CCCC(=O)O)cc2)c1 [Compound 66B]
- EC50 (A549): 100 to 1000 nM
- IC50 (15-PGDH/HPGD): 100 to 1000 nM

Structure (SMILES): CC(C)OC[C@H](O)c1cnc2c(cnn2-c2ccc3nc(N4CCOCC4)nn3c2)c1 [Compound 60B]
- EC50 (A549): 100 to 1000 nM
- IC50 (15-PGDH/HPGD): ≥ 1000 nM

Structure (SMILES): O=C(O)CCc1ccc(-n2ncc3cc([C@H](O)COC4CCC4)cnc32)cc1F [Compound 82B]
- EC50 (A549): ≥ 1000 nM

Structure (SMILES): O=C(O)c1ccc(-n2ncc3cc([C@H](O)COC4CC(F)(F)C4)cnc32)cc1 [Compound 91B]
- EC50 (A549): ≥ 1000 nM

Structure (SMILES): O=C(O)c1ccc(-n2ncc3cc([C@@H](O)C4COC4)ccc32)cc1 [Compound 120B]
- IC50 (15-PGDH/HPGD): 100 to 1000 nM

Structure (SMILES): O=C(O)c1ccc(-n2ncc3cc([C@H](O)C4CC(F)(F)C4)cnc32)cn1 [Compound 97A]
- EC50 (A549): ≥ 1000 nM

Structure (SMILES): O=C(O)c1ccc(-n2ncc3cc([C@@H](O)COCC4CCC4)cnc32)cc1 [Compound 101A]
- EC50 (A549): < 100 nM

Structure (SMILES): Cc1nn(-c2ccc(C(=O)O)cc2)c2ncc([C@@H](O)C3CC(F)(F)C3)cc12 [Compound 102B]
- EC50 (A549): 100 to 1000 nM

Structure (SMILES): Cc1nn(-c2ccc(C(=O)O)cc2)c2ncc([C@H](O)C3CC(F)(F)C3)cc12 [Compound 102A]
- EC50 (A549): ≥ 1000 nM

Structure (SMILES): O[C@@H](COC1CCC1)c1cnc2c(cnn2-c2ccc(-c3nnn[nH]3)cc2)c1 [Compound 79B]
- IC50 (15-PGDH/HPGD): < 100 nM

Structure (SMILES): OC(c1cnc2c(ccn2-c2cccc(-c3nnc[nH]3)c2)c1)C1CC(F)(F)C1 (stereo in doubt) [Compound 7B, (S)-(3,3-difluorocyclobutyl)-[1-[3-(4H-1,2,4-triazol-3-yl)phenyl]pyrrolo[2,3-b]pyridin-5-yl]methanol]
- EC50 (A549): < 100 nM

Structure (SMILES): O=C(O)c1ccc(-n2ncc3cc([C@@H](O)COC4CC(F)(F)C4)cnc32)cc1 [Compound 91A]
- EC50 (A549): ≥ 1000 nM

Structure (SMILES): CS(=O)(=O)c1cccc(-n2ncc3cc([C@@H](O)COC4CCC4)cnc32)c1 [Compound 123A]
- EC50 (A549): 100 to 1000 nM

Structure (SMILES): O=C(O)c1ccc(-n2ccc3cc([C@H](O)COC4CCC4)cnc32)cc1 [Compound 103B]
- EC50 (A549): 100 to 1000 nM

Structure (SMILES): CC(C)OC[C@H](O)c1cnc2c(cnn2-c2ccc(CCCC(=O)O)c(F)c2)c1 [Compound 77B]
- IC50 (15-PGDH/HPGD): < 100 nM

Structure (SMILES): O=C(O)c1ccc(-n2ccc3cc([C@@H](O)COC4CCC4)cnc32)cc1 [Compound 103A]
- EC50 (A549): < 100 nM

Structure (SMILES): CC(C)(O)c1cnc2c(ccn2-c2cc(Cl)cc(-c3nnc[nH]3)c2)c1 [Compound 14]
- IC50 (15-PGDH/HPGD): 100 to 1000 nM

Structure (SMILES): CCCCC(F)(F)[C@@H](O)c1cnc2c(ccn2-c2cccc(-c3nnc[nH]3)c2)c1 [Compound 8A]
- EC50 (A549): < 100 nM

Structure (SMILES): O[C@@H](c1cnc2c(cnn2-c2cccc(-c3nnc[nH]3)c2)c1)C1CCCC1 [Compound 9B]
- EC50 (A549): < 100 nM

Structure (SMILES): CC1(C)CC(OC[C@H](O)c2cnc3c(cnn3-c3ccc(C(=O)O)cc3)c2)C1 [Compound 105A]
- EC50 (A549): 100 to 1000 nM

Structure (SMILES): CC(O)(c1cnc2c(ccn2-c2cccc(-c3nnc[nH]3)c2)c1)C1CCCC1 (single isomer, unassigned) [Compound 11A]
- IC50 (15-PGDH/HPGD): 100 to 1000 nM

Structure (SMILES): CCCCC(F)(F)[C@H](O)c1cnc2c(ccn2-c2cccc(-c3nnc[nH]3)c2)c1 [Compound 8B]
- EC50 (A549): 100 to 1000 nM

Structure (SMILES): O[C@@H](c1cnc2c(ccn2-c2cccc(-c3nnc[nH]3)c2)c1)C1CCCC1 [Compound 6B]
- EC50 (A549): 100 to 1000 nM

Structure (SMILES): CC(C)(C)OC[C@H](O)c1cnc2c(ccn2-c2cccc(-c3nnc[nH]3)c2)c1 [Compound 31A]
- IC50 (15-PGDH/HPGD): < 100 nM

Structure (SMILES): CC(O)(c1cnc2c(ccn2-c2cccc(-c3nnc[nH]3)c2)c1)C1CCCC1 (single isomer, unassigned) [Compound 11B]
- IC50 (15-PGDH/HPGD): ≥ 1000 nM

Structure (SMILES): OC1(c2cnc3c(ccn3-c3cc(Cl)cc(-c4nnc[nH]4)c3)c2)CCCC1 [Compound 13]
- IC50 (15-PGDH/HPGD): 100 to 1000 nM

Structure (SMILES): O=C(O)c1ccc(-n2ncc3cc([C@@H](O)C4CC(F)(F)C4)cnc32)cn1 [Compound 97B]
- EC50 (A549): < 100 nM

Structure (SMILES): OC(c1cnc2c(ccn2-c2cccc(-c3nnc[nH]3)c2)c1)C1CC(F)(F)C1 (stereo in doubt) [Compound 7A, (R)-(3,3-difluorocyclobutyl)-[1-[3-(4H-1,2,4-triazol-3-yl)phenyl]pyrrolo[2,3-b]pyridin-5-yl]methanol]
- EC50 (A549): < 100 nM

Structure (SMILES): CC(C)OC[C@@H](O)c1cnc2c(cnn2-c2ccc(OCC(=O)O)cc2)c1 [Compound 78B]
- IC50 (15-PGDH/HPGD): < 100 nM

Structure (SMILES): O[C@H](c1cnc2c(ccn2-c2cccc(-c3nnc[nH]3)c2)c1)C1CCCC1 [Compound 6A]
- EC50 (A549): < 100 nM

Structure (SMILES): O=C(O)c1ccc(-n2ccc3cc([C@H](O)[C@H]4CCCO4)cnc32)cc1 [Compound 100B]
- EC50 (A549): < 100 nM

Structure (SMILES): CC(C)(O)c1cnc2c(cnn2-c2cc(Cl)cc(-c3nnc[nH]3)c2)c1 [Compound 19, 2-[1-[3-chloro-5-(4H-1,2,4-triazol-3-yl)phenyl]pyrazolo[3,4-b]pyridin-5-yl]propan-2-ol]
- IC50 (15-PGDH/HPGD): ≥ 1000 nM

Structure (SMILES): Cc1nn(-c2ccc(C(=O)O)cc2)c2ncc([C@H](O)COC3CCCC3)cc12 [Compound 104B]
- EC50 (A549): 100 to 1000 nM

Structure (SMILES): O=C(O)c1ccc(-n2ccc3cc([C@@H](O)[C@@H]4CCCO4)cnc32)cc1 [Compound 98A]
- EC50 (A549): ≥ 1000 nM

Structure (SMILES): CC1(C)CC(OC[C@@H](O)c2cnc3c(cnn3-c3ccc(C(=O)O)cc3)c2)C1 [Compound 105B]
- EC50 (A549): < 100 nM

Structure (SMILES): O[C@H](c1cnc2c(cnn2-c2cccc(-c3nnc[nH]3)c2)c1)C1CCCC1 [Compound 9A]
- EC50 (A549): < 100 nM

Structure (SMILES): O=C(O)c1ccc(-n2ccc3cc([C@H](O)[C@@H]4CCCO4)cnc32)cc1 [Compound 98B]
- EC50 (A549): < 100 nM

Structure (SMILES): O=C(O)CCc1ccc(-n2ncc3cc([C@H](O)COC4CC4)cnc32)cc1F [Compound 86B]
- IC50 (15-PGDH/HPGD): < 100 nM

Structure (SMILES): O=C(O)c1ccc(-n2ccc3cc([C@@H](O)[C@H]4CCCO4)cnc32)cc1 [Compound 100A]
- EC50 (A549): ≥ 1000 nM
